US20020001841A1, “CONTINUOUS T-CELL LINES” (priority 1998, published 2002)
Where “and” joins values, the source holds several entries; their conditions need not be identical. Identical values can stand only once.

Columns and labels:
[1] = test system: activated gut T-lymphocytes in Crohn's disease; format: cell-based, human
[2] = test system: gut T-cell cultures from patients with Crohn's disease; format: cell-based, human
transmembrane TNFα = details: murine SP2/O myeloma cells with cleavage resistant transmembrane TNFα; Scatchard analyses; cited from earlier work
[3] = test system: gut T-cell cultures from patients with Crohn's disease; format: cell-based, human; remark: listed apart in the source

Sequence of transmembrane TNFα (P01375 88-233 limits assumed): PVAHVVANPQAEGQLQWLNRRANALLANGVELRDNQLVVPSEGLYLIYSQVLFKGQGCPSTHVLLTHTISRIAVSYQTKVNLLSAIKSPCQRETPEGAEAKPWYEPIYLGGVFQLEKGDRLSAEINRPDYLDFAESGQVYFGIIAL

Infliximab: chimeric TNFα antibody with high avidity for transmembrane TNFα, obtained from Centocor
24 hour production of IFNγ (in words) [1]: reduction
Production of IFNγ and TNFα (in words) [1]: reduced
Reduction of IFNγ production by Infliximab [1]: 68% and 43% and 49% and 56%
Reduction of TNFα production by Infliximab [1]: 97%
Amount of propidium iodide and Annexin-FITC positive cells compared with SEA alone [2]: did not increase
Apoptosis (in words) [2]: did not induce any apoptosis
Infliximab molecules bound per cell (transmembrane TNFα): about 35000 molecules per cell
Proliferation rate (in words) [3]: did not change the proliferation rate
